# pIC50: −log10 of the molar value.
# Key:
# Plasmodium falciparum [1] = test: Antiplasmodial activity against chloroquine-sensitive Plasmodium falciparum D10; assay type: functional, organism-based
# Plasmodium falciparum [2] = test: Antiplasmodial activity against chloroquine-resistant Plasmodium falciparum W2; assay type: functional, organism-based
# KB [3] = test: Cytotoxicity against human KB cells assessed as growth inhibition; assay type: functional, cell-based
# KB [4] = test: Cytotoxicity against human KB cells assessed as growth inhibition at 10 uM; assay type: functional; conditions: read-out: GI
# Plasmodium falciparum [5] = test: Antiplasmodial activity against chloroquine-resistant Plasmodium falciparum K1; assay type: functional, organism-based
# KB [6] = test: Cytotoxicity against human KB cells assessed as growth inhibition at 100 uM; assay type: functional; conditions: read-out: GI
# Plasmodium falciparum [7] = test: Antiplasmodial activity against chloroquine-sensitive Plasmodium falciparum 3D7; assay type: functional, organism-based
# KB [8] = test: Cytotoxicity against human KB cells assessed as growth inhibition at 0.5 uM; assay type: functional; conditions: read-out: GI
pIC50 (Plasmodium falciparum [1]),Compound,pIC50 (Plasmodium falciparum [2]),pIC50 (KB [3]),inhibition of growth at 10 µM (KB [4]),pIC50 (Plasmodium falciparum [5]),inhibition of growth at 100 µM (KB [6]),pIC50 (Plasmodium falciparum [7]),inhibition of growth at 0.5 µM (KB [8])
4.99,[N-]=[N+]=N[C@@H]1C(=O)N(c2ccccc2)[C@@H]1/C=C/c1ccccc1,,,,,,,
5.23,Cc1ccc(N2C(=O)[C@@H](N=[N+]=[N-])[C@H]2/C=C/c2ccccc2)cc1,,,,,,,
5.35,[N-]=[N+]=N[C@@H]1C(=O)N(c2ccc(Cl)cc2)[C@@H]1/C=C/c1ccccc1,,,,,,,
5.63,[N-]=[N+]=N[C@@H]1C(=O)N(C2CCCCC2)[C@@H]1/C=C/c1ccccc1,,,,,,,
5.33,[N-]=[N+]=N[C@@H]1C(=O)N(Cc2ccccc2)[C@@H]1/C=C/c1ccccc1,,,,,,,
4.42,N[C@@H]1C(=O)N(c2ccc(Cl)cc2)[C@@H]1/C=C/c1ccccc1,,,,,,,
4.73,N[C@@H]1C(=O)N(C2CCCCC2)[C@@H]1/C=C/c1ccccc1,,,,,,,
4.22,Cc1ccc(N2C(=O)[C@@H](N)[C@H]2/C=C/c2ccccc2)cc1,,,,,,,
4.53,N[C@@H]1C(=O)N(c2ccccc2)[C@@H]1/C=C/c1ccccc1,,,,,,,
,COC(=O)c1nnn([C@@H]2C(=O)N(c3ccc(C)cc3)[C@@H]2/C=C/c2ccccc2)c1C(=O)OC,< 4.70,,,,,,
,COC(=O)c1nnn([C@@H]2C(=O)N(C3CCCCC3)[C@@H]2/C=C/c2ccccc2)c1C(=O)OC,< 4.70,< 3.64,-7.7%,< 4.34,8.07%,< 4.34,
,COC(=O)c1nnn([C@@H]2C(=O)N(c3ccc(Cl)cc3)[C@@H]2/C=C/c2ccccc2)c1C(=O)OC,< 4.70,3.84,19.5%,4.91,56.5%,4.60,
,O=C1[C@@H](n2cc(-c3ccccc3)nn2)[C@@H](/C=C/c2ccccc2)N1c1ccccc1,4.93,4.04,10%,< 4.29,58.3%,< 4.29,
,O=C1[C@@H](n2cc(-c3ccccc3)nn2)[C@@H](/C=C/c2ccccc2)N1C1CCCCC1,6.00,5.08,76.8%,5.92,99.7%,5.95,
,O=C1[C@@H](n2cc(-c3ccccc3)nn2)[C@@H](/C=C/c2ccccc2)N1c1ccc(Cl)cc1,6.00,4.07,16.8%,5.15,79.3%,5.10,
,Cc1ccc(N2C(=O)[C@@H](n3cc(-c4ccccc4)nn3)[C@H]2/C=C/c2ccccc2)cc1,6.00,4.05,14.7%,5.47,80.8%,4.92,
,CCN(CC)CCCC(C)Nc1ccnc2cc(Cl)ccc12 (stereo unspecified) [CHLOROQUINE],,4.44,31.4%,,97%,,
,COc1cc([C@@H]2c3cc4c(cc3[C@H](O)[C@H]3COC(=O)[C@H]23)OCO4)cc(OC)c1OC [PODOFILOX],,9.30,,,,,81.5%
